In patent publication US11065253B2, “Arylquinazolines” (Merck Patent GmbH, priority 2013, dated 2021):
Like-named read-outs stand apart in the source and are kept apart here.

Test system: phospho-serine 2056 DNA-PK in HCT116 cells
Assay: DNA-PK phosphorylation at serine 2056 (cellular), ELISA in bleomycin-treated HCT116 cells
Assay type: cell-based
Conditions: read-out: IC50 pDNA-PK
Protocol: HCT116 cells were cultivated at 37° C. and 10% CO2 in MEM alpha medium with 10% of foetal calf serum and 2 mM glutamine. The cells were detached from the base of the culture vessels with the aid of trypsin/EDTA, centrifuged off in centrifuge tubes, taken up in fresh medium, and the cell density was determined. 100,000 cells were sown in 1 ml of culture medium per cavity of a 24-well cell culture plate and cultivated overnight. Next day, 10 μM bleomycin (DNA intercalator and inductor of DNA double-strand breaks) and test substances in fresh culture medium were added to the cells, and these were cultivated for a further six hours. […] The 96-well ELISA plates were subsequently treated with a detection antibody (Abcam ab79444: total DNA-PK) and a streptavidin-HRP conjugate. The development of the enzymatic reaction was carried out with the aid of a chemiluminescent reagent, the chemiluminescence was measured with the aid of a Mithras LB940. The signals with the phospho-DNA-PK-specific antibody were standardised to the signal with the antibody against the total protein DNA-PKc. […] The DMSO control was used as blank.

[1] = cellular, HCT116 cells, 10 μM bleomycin, six hours
[2] = phospho-serine 2056 DNA-PK, bleomycin-treated HCT116 cells, class symbols A-D
[3] = Homo sapiens, HCT-116, 6 h, cellular, HCT116 cells, 10 μM bleomycin, six hours

Structure (SMILES) | IC50 [3] | other results
OC(c1ccc(F)c(-c2ncnc3cc(N4CCOCC4)sc23)c1)c1nccs1 (racemic) [Example 144, [4-Fluoro-3-(6-morpholin-4-yl-thieno[3,2-d}-pyrimidin-4-yl)-phenyl]thiazol-2-yl-methanol] | – | IC50 (Homo sapiens, HCT-116, phospho-serine 2056 DNA-PK, bleomycin-treated HCT116 cells, class symbols A-D): 500 to 5000 nM
OC(c1ccc(F)c(-c2ncnc3cc(N4CCOCC4)sc23)c1)c1nccnc1Cl (single isomer, unassigned) [Example 24, (3-Chloro-pyrazin-2-yl)-[4-fluoro-3-(6-morpholin-4-yl-thieno-[3,2-d}pyrimidin-4-yl)-phenyl]methanol] | – | IC50 [1]: < 500 nM
CC(C#N)Oc1ccc(C(O)c2cc(-c3ncnc4cc(N5CCOCC5)ccc34)c(F)cc2Cl)nn1 (single isomer, unassigned) [Example 102, 2-(6-{[2-Chloro-4-fluoro-5-(7-morpholin-4-yl-quinazolin-4-yl)-phenyl]hydroxy-methyl}pyridazin-3-yloxy)propionitrile] | – | IC50 [2]: < 500 nM
COc1ccc(C(O)c2cc(-c3ncnc4cc(N5CCOCC5)sc34)c(F)cc2Cl)nn1 (single isomer, unassigned) [Example 126, [2-Chloro-4-fluoro-5-(6-morpholin-4-ylthieno[3,2-d}-pyrimidin-4-yl)-phenyl]-(6-methoxy-pyridazin-3-yl)-methanol] | – | IC50 [2]: < 500 nM
O[C@@H](c1cc(-c2ncnc3cc(N4CCOCC4)ccc23)c(F)cc1Cl)c1nccn2ccnc12 (single isomer, unassigned) [Example 396] | – | IC50 (cellular DNA-PK phosphorylation at serine 2056, HCT116 cells): < 500 nM
OC(c1ccc(F)c(-c2ncnc3cc(N4CCOCC4)ccc23)c1)c1c(F)cncc1F (stereo not drawn) [Example 1, (3,5-Difluoropyridin-4-yl)-[4-fluoro-3-(7-morpholin-4-ylquinazolin-4-yl)phenyl]methanol] | 500 to 5000 nM | –
OC(c1ccc(F)c(-c2ncnc3cc(N4CCOCC4)ccc23)c1)c1cncc(F)c1Cl (stereo not drawn) [Example 2, (4-Chloro-5-fluoropyridin-3-yl)-[4-fluoro-3-(7-morpholin-4-ylquinazolin-4-yl)phenyl]methanol] | < 500 nM | –
COc1ccnnc1C(O)c1cc(-c2ncnc3cc(N4CCOCC4)ccc23)c(F)cc1Cl (stereo not drawn) [Example 3, [2-Chloro-4-fluoro-5-(7-morpholin-4-yl-quinazolin-4-yl)phenyl]-(4-methoxy-pyridazin-3-yl)methanol] | 500 to 5000 nM | –
O=c1[nH]ccnc1C(O)c1ccc(F)c(-c2ncnc3cc(N4CCOCC4)ccc23)c1 (stereo not drawn) [Example 5, 3-{[4-Fluoro-3-(7-morpholin-4-yl-quinazolin-4-yl)phenyl]-hydroxymethyl}-1H-pyrazin-2-one] | 10000 to 30000 nM | –
COc1cc(C(O)c2ccc(F)c(-c3ncnc4cc(N5CCOCC5)ccc34)c2)c(Cl)nn1 (stereo not drawn) [Example 7, (3-Chloro-6-methoxy-pyridazin-4-yl)-[4-fluoro-3-(7-morpholin-4-yl-quinazolin-4-yl)phenyl]-methanol] | < 500 nM | –
COc1cc(Cl)nnc1C(O)c1cc(-c2ncnc3cc(N4CCOCC4)ccc23)c(F)cc1Cl (stereo not drawn) [Example 8, [2-Chloro-4-fluoro-5-(7-morpholin-4-yl-quinazolin-4-yl)phenyl]-(6-chloro-4-methoxy-pyridazin-3-yl)methanol] | 500 to 5000 nM | –
COc1nnc(Cl)cc1C(O)c1ccc(F)c(-c2ncnc3cc(N4CCOCC4)ccc23)c1 (stereo not drawn) [Example 9] | – | IC50 [1]: < 500 nM
COc1cc(Cl)nnc1C(O)c1ccc(F)c(-c2ncnc3cc(N4CCOCC4)ccc23)c1 (stereo not drawn) [Example 10, (6-Chloro-4-methoxy-pyridazin-3-yl)-[4-fluoro-3-(7-morpholin-4-yl-quinazolin-4-yl)phenyl]-methanol] | < 500 nM | –
CC(C)(C)Oc1nccnc1C(O)c1ccc(F)c(-c2ncnc3cc(N4CCOCC4)ccc23)c1 (stereo not drawn) [Example 13, (3-tert-Butoxy-pyrazin-2-yl)-[4-fluoro-3-(7-morpholin-4-yl-quinazolin-4-yl)phenyl]-methanol] | 10000 to 30000 nM | –
OC(c1ccc(F)c(-c2ncnc3cc(N4CCOCC4)ccc23)c1)c1nccnc1N1CCCC1 (stereo not drawn) [Example 14, [4-Fluoro-3-(7-morpholin-4-yl-quinazolin-4-yl)phenyl]-(3-pyrrolidin-1-yl-pyrazin-2-yl)methanol] | 500 to 5000 nM | –
